Measured values published in patent publication US8952033B2, “4-anilinofuro[2,3-b]quinoline derivatives, their preparation processes, and pharmaceutical compositions comprising the same” (Kaohsiung Medical University, priority 2011, dated 2015).
Values after ≈ are worked out from the molar mass of the structure shown. Marks after values point to notes of the source that are not given here.

Assays:
[1] = Single-dose pharmacokinetic analysis in CD-1 mice; type: in vivo
Procedure: CD-1 mice were divided into two groups. The first group of mice (n=9) were used to assess the singe-dose pharmacokinetics of the test compounds after intravenous administration, and the second group of mice (n=9) were utilized to assess the singe-dose pharmacokinetics of the test compounds after oral administration. All of the mice were fasted from 4 hours before the administration of the test compounds until 4 hours after the administration of the test compounds.
The assessment for singe-dose pharmacokinetics of the test compounds after intravenous administration was performed as follows. The first group of mice were further randomly divided into three subgroups including compound 13a group (n=3), compound 14a group (n=3), and compound 1 group (n=3). Compounds 13a, 14a, 1 (in polyethylene glycol 400/ethanol/water (30/5/65, v/v/v)) were respectively administered to the mice in compound 13a group, compound 14a group, and compound 1 group at a dose of 2 mg/kg via tail vein injection. Blood samples (0.25 mL) were collected from the mice by virtue of cardiac puncture right before the intravenous administration, and at 2 min, 5 min, 15 min, 30 min, 1 hr, 1.5 hr, 2 hr, 4 hr, 6 hr, 9 hr, 24 hr, and 27 hr after the intravenous administration.
The assessment for singe-dose pharmacokinetics of the test compounds after oral administration was conducted as follows. The second group of mice were further randomly divided into three subgroups including compound 13a group (n=3), compound 14a group (n=3), and compound 1 group (n=3). Compounds 13a, 14a, 1 (in 0.5% methylcellulose) were respectively administered to the mice in compound 13a group, compound 14a group, and compound 1 group at a dose of 20 mg/kg via tube feeding. Blood samples (0.25 mL) were collected from the mice by virtue of cardiac puncture right before the oral administration, and at 15 min, 30 min, 1 hr, 1.5 hr, 2 hr, 4 hr, 6 hr, 9 hr, 24 hr, and 27 hr after the oral administration.
Each of the blood samples was placed in a 0.5 mL Microtainer® tube containing anticoagulant EDTA-K2, followed by mixing evenly. Centrifugation at 7000 g and 4° C. was conducted for 5 minutes. Plasma was collected and was mixed uniformly with a proper amount of acetonitrile, followed by centrifugation. The resultant supernatant was acquired, and was injected into a reversed-phase Biosil ODS column so as to determine the concentration of the respective test compound in plasma (i.e., the plasma concentration of the respective test compound) using a LC-MS/MS system (Waters 2795 LC and Micromass Quattro Ultima). The singe-dose pharmacokinetic parameters of the respective test compound were calculated from the obtained concentration of the respective test compound in plasma (i.e., the obtained plasma concentration of the respective compound) at different time points using WinNonlin Standard Program (version 3.1, Pharsight Corp.)

[2] = test system: RCC 786-O (renal cell carcinoma cell); experiment: Preferential antiproliferative activity, RCC 786-O; type: cell-based
Procedure: (§1) Determination of GI50 of compounds 13a, 13c, 14a, 14c, 15a, 16a was conducted substantially according to the method as described in the preceding section A entitled “Evaluation of antiproliferative activity”, except that the normal cell line MRC-5 was also utilized, and that camptothecin and daunorubicin were tested instead of compounds 1, 2, 3. The concentration of the respective test compound, which can reduce absorbance by 50% (compared with DMSO), is regarded as GI50, and can be determined via dose-response curves. Determination of GI50 was conducted thrice for each test compound. GI50 is expressed as mean±SD.
(§2) SI stands for selectivity index and was calculated by substituting GI50 into the following formula: D=E/F (2) where • D=SI • E=GI50 of the respective test compound for cells of the normal cell line • F=GI50 of the respective test compound for cells of the cancer cell line The experimental results are summarized in Table 4. […]

[3] = test system: SKHep-1 (hepatocellular carcinoma cell); experiment: Preferential antiproliferative activity, SKHep; type: cell-based
Procedure: as §1, §2

[4] = test system: NCI-H1299 (non-small cell lung carcinoma cell); experiment: Preferential antiproliferative activity, NCI-H1299; type: cell-based
Procedure: as §1, §2

[5] = test system: HeLa (human cervical epithelioid carcinoma cell); experiment: Preferential antiproliferative activity, HeLa; type: cell-based
Procedure: as §1, §2

[6] = Determination of solubility in water; type: physicochemical
Procedure: Determination of solubility in water was conducted substantially according to the method as described in Vougogiannopoulou, K. et al. (2008), J. Med. Chem., 51:6421-6431. An excess amount of the respective test compound was added into water, followed by sonication for 5 minutes. The resultant mixture was stirred at ambient temperature (25±0.1° C.) overnight. Centrifugation at 4000 rpm and 25° C. was conducted for 5 minutes. Absorbance of the sample of the respective test compound was measured at 315-420 nm using a UV-VIS spectrophotometer (JASCO UV-Visible V570). For each test compound, a standard curve was generated by plotting concentrations of standard solutions and the corresponding absorbances. The absorbance of the sample of each test compound was then converted to solubility in water (μg/mL) using the corresponding standard curve.

[7] = test system: CE81T (human esophageal carcinoma cell); experiment: Preferential antiproliferative activity, CE81T; type: cell-based
Procedure: as §1, §2

[8] = test system: A549 (human lung adenocarcinoma cell); experiment: Preferential antiproliferative activity, A549; type: cell-based
Procedure: as §1, §2

[9] = intravenous administration, 2 mg/kg

## C/C(=N\OCCN)c1ccc(Nc2c3ccccc3nc3occc23)cc1 [Compound 13a, (E)-1-(4-(furo[2,3-b]quinolin-4-ylamino)phenyl)ethanone O-2-aminoethyl oxime]
[1]; [9]
  AUC(0-inf): 0.3626 µg·h/mL
  CL: 5.51 L/h/kg
  MRT: 2.5 h
  Vss: 13.5 L/kg
  Vz: 38.8 L/kg
[1]; intravenous administration, 2 mg/kg, extrapolated plasma concentration at 0 hr
  Cmax: 1.4884 µg/mL
[1]; intravenous administration, 2 mg/kg, from 0.5-1.5 hr (compd. 1) or 9-27 hr (13a, 14a)
  t1/2: 4.9^d hr
[1]; oral 20 mg/kg versus intravenous 2 mg/kg
  Bioavailability: 57.1%
[1]; oral administration, 20 mg/kg
  AUC(0-inf): 2.0716 µg·h/mL
  Cmax: 1.905 µg/mL
  MRT: 3.0 h
  Tmax: 0.5 h
[1]; oral administration, 20 mg/kg, from 2-6 hr (compd. 1), 2-24 hr (13a), 2-9 hr (14a)
  t1/2: 3.4 h
[2]; Homo sapiens, 786-0, mean±SD
  GI50: 24 ± 2 µM
[2]; versus MRC-5
  SI RCC 786-O: 1.77
[3]; Homo sapiens, SK-HEP1, mean±SD
  GI50: 13.1 ± 3.75 µM
[3]; versus MRC-5
  SI SKHep: 3.26
[4]; Homo sapiens, NCI-H1299, mean±SD
  GI50: 3.08 ± 1.12 µM
[4]; versus MRC-5
  SI NCI-H1299: 13.91
[5]; Homo sapiens, HeLa, mean±SD
  GI50: 8.31 ± 0.6 µM
[5]; versus MRC-5
  SI HeLa: 5.16
[6]; 25±0.1° C., stirred overnight, UV-VIS
  Solubility in water: 0.063 mg/mL (≈ 175 µM)
[6]; fold versus compound 2
  Solubility in water relative to compound 2: about six times higher
[7]; Homo sapiens, CE81T, mean±SD
  GI50: 16.9 ± 1.88 µM
[7]; versus MRC-5
  SI CE81T: 2.53
[8]; Homo sapiens, A549, mean±SD
  GI50: 6.58 ± 2.99 µM
[8]; versus MRC-5
  SI A549: 6.51
